Patent US7695930B2, “Method for the detection, identification and/or quantification of microoganisms with peptidase activity using phenoxazinone derivatives as enzyme substrates” (Biomerieux, priority 2003, dated 2010)

What was measured:
Type in all cases: cell-based
[1] = test system: Pseudomonas aerigunosa (NCTC 10038); experiment: Alanine peptidase detection, substrates with one to three amino acids (Example 15); design: key to color of the colony: R=pink; RP=pale pink; I=colorless; conditions: 50 mg/l
Method: (§1) 1000 ml of Columbia medium was melted in a waterbath at 100° C. and autoclaved at 121° C. for 15 min. It was then cooled to 50° C. in a waterbath.
(§2) This medium was separated into 5 flasks of 200 ml, and then, added at 50° C., as substrates, was that of Example 2 for which A is: • medium 1: L-alanine (L-alanine-9-aminobenzo[a]phenoxazin-5-one or A-ABP), • medium 2: L-alanine-L-alanine (L-alanine-L-alanine-9-aminobenzo-[a]phenoxazin-5-one or AA-ABP), • medium 3: L-alanine-L-alanine-L-alanine (L-alanine-L-alanine-L-alanine-9-aminobenzo[a]phenoxazin-5-one or AAA-ABP), • medium 4: L-alanine-glycine (L-alanine-glycine-9-aminobenzo[a]phenoxazin-5-one or AG-ABP), and • medium 5: glycine-L-alanine (glycine-L-alanine-9-aminobenzo[a]phenoxazin-5-one or GA-ABP), each substrate being solubilized in DMSO and used at a final concentration of 50 mg/l.
(§3) The medium was then poured into Petri dishes.
(§4) Nine microorganism strains derived from the Applicant's collection, suspended in physiological saline, were seeded in colonies on the media prepared in point 15.1 above according to a multipoint inoculation in a proportion of 15 000 cfu/spot. The dishes were incubated at 37° C. for 48 hours. The colonies formed were examined visually after incubation for 24 and 48 hours.
(§5) The results are expressed in Tables 7 and 8 hereinafter according to the rules and the nomenclature stated in paragraph 11.3 and where R=pink, RP=pale pink and I=colorless.

[2] = test system: Escherichia coli (NCTC 10418); experiment: as above; design: key to color of the colony: R=pink; RP=pale pink; I=colorless; conditions: 50 mg/l
Method: as §1, §2, §3, §4, §5

[3] = test system: Enterobacter clocae (NCTC 11936); experiment: as above; design: key to color of the colony: R=pink; RP=pale pink; I=colorless; conditions: 50 mg/l
Method: as §1, §2, §3, §4, §5

[4] = test system: Acinetobacter baumannii (ATCC 19606); experiment: as above; design: key to color of the colony: R=pink; RP=pale pink; I=colorless; conditions: 50 mg/l
Method: as §1, §2, §3, §4, §5

[5] = test system: Listeria monocytogenes (NCTC 11994); experiment: as above; design: key to color of the colony: R=pink; RP=pale pink; I=colorless; conditions: 50 mg/l
Method: as §1, §2, §3, §4, §5

Listeria innocua = experiment: Alanyl-peptidase detection on agar medium (Example 13); conditions: 25 mg/l
Method: (§6) The detection media were prepared by mixing 3.6 g of biogelytone (bioMérieux), 2.16 g of meat extract (bioMérieux), 1.26 g of malt extract (bioMérieux), 5.76 g of NaCl (Merck) and 10.8 g of agar (bioMérieux).
(§7) 720 ml of osmosed water were added to the powder, and the mixture was then melted in a waterbath at […]. The product was separated into two flasks, each of 360 ml. Autoclaving was carried out at 121° C. for 15 min and the product was cooled to […]. in a waterbath.
(§8) L-Alanyl-7-amino-4-methylcoumarin (Ala-AMC, Bachem) was then added to the first flask as a control, at the final concentration of 50 mg/l, and L-alanyl-9-aminobenzo[a]phenoxazin-5-one (Ala-ABP, substrate of the invention obtained in Example 2, in which the amino acid is L-alanine), was then added to the second flask at the final concentration of 25 mg/l.
(§9) The size of the colonies, their coloration and also the intensity of this coloration were noted.

Salmonella typhimurium = experiment: as above; conditions: 25 mg/l
Method: as §6, §7, §8, §9

[6] = test system: Staphylococcus saprophyticus; experiment: as above; conditions: 25 mg/l
Method: as §6, §7, §8, §9

Proteus mirabilis = experiment: as above; conditions: 25 mg/l
Method: as §6, §7, §8, §9

Serratia liquefaciens = experiment: as above; conditions: 25 mg/l
Method: as §6, §7, §8, §9

Escherichia coli = experiment: as above; conditions: 25 mg/l
Method: as §6, §7, §8, §9

Edwardsiella tarda = experiment: as above; conditions: 25 mg/l
Method: as §6, §7, §8, §9

Acinetobacter baumanii = experiment: as above; conditions: 25 mg/l
Method: as §6, §7, §8, §9

Enterococcus faecalis = experiment: as above; conditions: 25 mg/l
Method: as §6, §7, §8, §9

Serratia marcescens = experiment: as above; conditions: 25 mg/l
Method: as §6, §7, §8, §9

Hafnia alvei = experiment: as above; conditions: 25 mg/l
Method: as §6, §7, §8, §9

L-alanyl-9-aminobenzo[a]phenoxazin-5-one [Ala-ABP]
0.1 mm: growth diameter ([6]; 24 h)
3 mm: growth diameter ([1]; 24 h) | growth diameter ([1]; 48 h) | growth diameter ([2]; 24 h) | growth diameter ([2]; 48 h) | growth diameter ([3]; 24 h) | growth diameter ([3]; 48 h) | growth diameter ([4]; 24 h) | growth diameter ([4]; 48 h)
2 mm: growth diameter ([5]; 24 h) | growth diameter ([5]; 48 h)
1.5 mm: growth diameter (Salmonella typhimurium; 48 h)
0.2 mm: growth diameter (Listeria innocua; 24 h)
0.3 mm: growth diameter (Listeria innocua; 48 h) | growth diameter ([6]; 48 h) | growth diameter (Enterococcus faecalis; 24 h) | growth diameter (Enterococcus faecalis; 48 h)
0.7 mm: growth diameter (Serratia liquefaciens; 24 h) | growth diameter (Edwardsiella tarda; 48 h)
R: color of the colony ([1]; 24 h) | color of the colony ([1]; 48 h) | color of the colony ([2]; 24 h) | color of the colony ([2]; 48 h) | color of the colony ([3]; 24 h) | color of the colony ([3]; 48 h) | color of the colony ([4]; 24 h) | color of the colony ([4]; 48 h) | color of the colony ([5]; 48 h) | color of the colony (Salmonella typhimurium; 24 h) | color of the colony (Salmonella typhimurium; 48 h) | color of the colony (Proteus mirabilis; 24 h) | color of the colony (Proteus mirabilis; 48 h) | color of the colony (Serratia liquefaciens; 24 h) | color of the colony (Serratia liquefaciens; 48 h) | color of the colony (Escherichia coli; 24 h) | color of the colony (Escherichia coli; 48 h) | color of the colony (Edwardsiella tarda; 24 h) | color of the colony (Edwardsiella tarda; 48 h) | color of the colony (Acinetobacter baumanii; 24 h) | color of the colony (Acinetobacter baumanii; 48 h) | color of the colony (Serratia marcescens; 24 h) | color of the colony (Serratia marcescens; 48 h) | color of the colony (Hafnia alvei; 24 h) | color of the colony (Hafnia alvei; 48 h)
3: intensity of coloration, scale 0 to 4 (Serratia liquefaciens; 24 h) | intensity of coloration, scale 0 to 4 (Serratia liquefaciens; 48 h) | intensity of coloration, scale 0 to 4 (Edwardsiella tarda; 48 h) | intensity of coloration, scale 0 to 4 (Acinetobacter baumanii; 24 h) | intensity of coloration, scale 0 to 4 (Acinetobacter baumanii; 48 h) | intensity of coloration, scale 0 to 4 (Serratia marcescens; 48 h)
1: intensity of coloration, scale 0 to 4 (Salmonella typhimurium; 48 h) | intensity of coloration, scale 0 to 4 (Escherichia coli; 24 h) | intensity of coloration, scale 0 to 4 (Escherichia coli; 48 h) | intensity of coloration, scale 0 to 4 (Edwardsiella tarda; 24 h)
1.7 mm: growth diameter (Proteus mirabilis; 24 h) | growth diameter (Proteus mirabilis; 48 h) | growth diameter (Escherichia coli; 24 h) | growth diameter (Acinetobacter baumanii; 24 h) | growth diameter (Acinetobacter baumanii; 48 h)
2: intensity of coloration, scale 0 to 4 (Serratia marcescens; 24 h)
I: color of the colony ([5]; 24 h)
1.8 mm: growth diameter (Escherichia coli; 48 h)
0.5: intensity of coloration, scale 0 to 4 (Salmonella typhimurium; 24 h) | intensity of coloration, scale 0 to 4 (Proteus mirabilis; 24 h) | intensity of coloration, scale 0 to 4 (Hafnia alvei; 24 h)
1.3 mm: growth diameter (Serratia liquefaciens; 48 h)
1 mm: growth diameter (Salmonella typhimurium; 24 h) | growth diameter (Serratia marcescens; 48 h)
0.5 mm: growth diameter (Edwardsiella tarda; 24 h) | growth diameter (Serratia marcescens; 24 h) | growth diameter (Hafnia alvei; 24 h) | growth diameter (Hafnia alvei; 48 h)
1.5: intensity of coloration, scale 0 to 4 (Proteus mirabilis; 48 h) | intensity of coloration, scale 0 to 4 (Hafnia alvei; 48 h)
